# Read-outs that look alike come from different tables or passages of the source. Where a SMILES comes first, the peptide text is derived from it. Where no end group is shown, it is not given here. [ ]: non-standard residue; d: D form. The star is where a group is joined. pGlu = O=C1CC[C@@H](C(=O)O)N1; Acm = CC(=O)NC*
# Legend:
# cell proliferation = conditions: cited from earlier work
# mouse bone marrow cells [1] = assay type: cell-based
# Description: For the long-term cultivation, cells isolated from mouse bone marrow were used in semi-solid agar culture. 1.5×10^5 femoral medulla cells obtained from 2-3 month old male C57B1 mice were suspended in 1 ml of "McCoy 5A" medium (product of Gibco), then the following were added: 20% by volume of horse blood-serum (product of Gibco), 16% by volume of L-cell CSF (colony stimulating factor prepared from the supernatant of […]; product of the Pharmacological Institute of the Medical University of Debrecen, Hungary) and agar-agar to 0.18% by weight. 100 μl of the semi-solid medium were cultivated in a Micropet capillary for 7 days in the above-described manner, then the colonies were counted under a Zeiss-Cytoplast stereomicroscope of 40-times magnification. The results are given as the percentage reduction of the numbers of colonies compared to the untreated control. The tests were carried out in the presence of 0.25 mmole/l mercapto ethanol (+ME) and without mercapto ethanol (-ME).
# mouse = conditions: two mouse species; dose of 9.1 mg/animal or 1 mg/animal; cited from earlier work
# mouse bone marrow cells [2] = conditions: 10^-15 to 10^-4 mole/l, 7-day in vitro treatment; cited from earlier work
# human bone marrow cells = conditions: 10^-15 to 10^-4 mole/l, 7-day in vitro treatment; cited from earlier work
compound,measurement,setting,value
"Xaa Glu Asp Met Lys ([pGlu]EDMK) [SEQ I.D. No: 4, Met analogue of the pentapeptide, Xaa is pyroglutamic acid]",effect on cell proliferation,cell proliferation,ineffectiveness
"Xaa Glu Asp Cys Lys Xaa Glu Asp Cys Lys ([pGlu]EDCK[pGlu]EDCK; not fully specified; printed as Xaa Glu Asp Cys Lys Xaa Glu Asp Cys Lys; cysteine pairing not given here) [SEQ I.D. No: 3, dimer molecule of the hemoregulating pentapeptide, Xaa is pyroglutamic acid]",effect on cell proliferation,cell proliferation,cell proliferation stimulating effect
"CC(=O)NCSC[C@H](NC(=O)[C@H](CC(=O)O)NC(=O)[C@H](CCC(=O)O)NC(=O)[C@@H]1CCC(=O)N1)C(=O)N[C@@H](CCCCN)C(=O)O [SEQ I.D. No: 1, Xaa Glu Asp Cys Lys] ([pGlu]EDC(Acm)K-OH)",percentage reduction of the numbers of colonies compared to the untreated control,mouse bone marrow cells [1]; 1e-12 mole/l,70%
same,percentage reduction of the numbers of colonies compared to the untreated control,mouse bone marrow cells [1]; 1e-8 mole/l,77%
same,percentage reduction of the numbers of colonies compared to the untreated control,mouse bone marrow cells [1]; 1e-4 mole/l,81%
"NCCCC[C@H](NC(=O)[C@H](CS)NC(=O)[C@H](CC(=O)O)NC(=O)[C@H](CCC(=O)O)NC(=O)[C@@H]1CCC(=O)N1)C(=O)O [SEQ I.D. No: 5, Xaa Glu Asp Cys Lys] (HELM PEPTIDE1{[Glp].E.D.C.K}$$$$V2.0)",toxicity to mice,mouse,not toxic
same,toxicity to bone marrow cells,mouse bone marrow cells [2],not toxic
same,toxicity to bone marrow cells,human bone marrow cells,not toxic
"CC(=O)NCSC[C@H](NC(=O)[C@H](CC(=O)O)NC(=O)[C@@H](N)CCC(=O)O)C(=O)N[C@@H](CCCCN)C(=O)O [SEQ I.D. No: 2, Glu Asp Cys Lys] (H-EDC(Acm)K-OH)",percentage reduction of the numbers of colonies compared to the untreated control,mouse bone marrow cells [1],29%
same,percentage reduction of the numbers of colonies compared to the untreated control,mouse bone marrow cells [1]; 1e-12 mole/l,36%
same,percentage reduction of the numbers of colonies compared to the untreated control,mouse bone marrow cells [1]; 1e-10 mole/l,52%
same,percentage reduction of the numbers of colonies compared to the untreated control,mouse bone marrow cells [1]; 1e-9 mole/l,26%
same,percentage reduction of the numbers of colonies compared to the untreated control,mouse bone marrow cells [1]; 1e-8 mole/l,64%
same,percentage reduction of the numbers of colonies compared to the untreated control,mouse bone marrow cells [1]; 1e-6 mole/l,66%

# From patent US5312812A, “Pharmaceutical compositions comprising novel oligopeptides exhibiting selective inhibiting effect upon the proliferation of hemopoietic cells” (Richter Gedeon Vegyeszeti Gyar Rt., priority 1990, dated 1994)
